Data on eight molecules can be found in US9067937B2 (priority 2012, dated 2015).

The test system of one assay is HT1197 cells. Kind of assay: Cell-based assay, anti-proliferative activity, MELK-negative control (Cell Counting Kit-8, 72 hours). Also noted: species or system human. As for the experimental part: 100 micro-L of cell suspension was seeded onto 96-well microtiter plate (ViewPlate-96FTC, PerkinElmer). The initial cell concentration of 22Rv1, T47D, A549, DU4475, and HT1197 were 3,000 cells/well, 2,000 cells/well and 2,500 cells/well, respectively. Cellular growth was determined using Cell Counting Kit-8 (DOJINDO) at 72 hours after the exposure of the candidate inhibitors. […] Accurate IC50 values were calculated as described previously.

In the next assay the test system is DU145 xenografts. Kind of assay: Xenograft model antitumor assay. On the set-up: species or system mice. The following applies: mouse, in vivo.
The subject of another assay is MDA-MB-231 xenografts. Kind of assay: Xenograft model antitumor assay. On the set-up: species or system mice. The following applies: mouse, in vivo; dihydrochloride.
A further assay relates to MIAPaCa-2 xenografts. As to the kind of experiment: Xenograft model antitumor assay. Also noted: species or system mice. As to conditions: mouse, in vivo.
The test system of a further assay is PC-14 xenografts. Kind of assay: Xenograft model antitumor assay (MELK-negative). The assay is classed as in vivo, mice. As to conditions: PC-14 (MELK hardly detectable), 10 mg/kg oral once a day, 14 days.
The next assay concerns A549 cells. As to the kind of experiment: Cell-based assay, anti-proliferative activity (Cell Counting Kit-8, 72 hours). On the set-up: species or system human. A digest of the protocol:
(§1)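 Cells seeded at 2,000–3,000 cells/well and exposed to candidate MELK inhibitors for 72 hours; growth measured with Cell Counting Kit-8. IC50 values calculated from the growth read-out.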
For orientation: Tetrazolium assays rely on reduction of a dye to a coloured formazan, in cell work by metabolically active cells.

Another assay concerns 22Rv1 cells. The assay is described as above. On the set-up: species or system human. The method in brief: as §1
In another assay the test system is DU4475 cells. The assay is described as above. Also noted: species or system human. The method in brief:
as §1

For a further assay, the system named is T47D cells. Described as above. Also noted: species or system human. A digest of the protocol: as §1
The next assay concerns the target MELK (Homo sapiens, UniProt Q14680). Kind of assay: Kinase assay (IMAP fluorescence polarization, FITC-labeled histone H3 peptide). It counts as biochemical. The following applies: 50 micro-M ATP. The method in brief: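 Kinase (0.8 ng/μL) reacted with 100 nM FITC-histone H3 peptide and 50 μM ATP in 20 mM HEPES, 0.3 mM MgCl2, 2 mM DTT, 0.01% Tween-20, pH 7.4, for 1 hour at room temperature. Phosphorylation read by IMAP fluorescence polarization after adding binding solution; IC50 from four-parameter fit.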
On the technique in general: In fluorescence polarisation assays a small probe gives low polarisation when free and higher when bound to something large.

The mark [1] stands for this setting: Homo sapiens, HT1197, 72 h, read-out: IC50 (μM) (HTll97).
[2] abbreviates: Homo sapiens, A549, 72 h, read-out: IC50 (μM) (A549).
The mark [3] stands for this setting: Homo sapiens, 22Rv1, 72 h, read-out: IC50 (μM) (22Rvl).
[4] abbreviates: Homo sapiens, DU-4475, 72 h, read-out: IC50 (μM) (DU4475).
[5] abbreviates: Homo sapiens, T47D, 72 h, read-out: IC50 (μM) (T47D).

Values joined by “and” are separate entries in the source; they are usually repeats but may differ in a detail not shown here. Equal entries are not always repeated. Structures can show the parent of a compound that is named as a salt. Where two headings read alike, the source gives them in different places.

Chain of MELK (Q14680 whole entry, looked up): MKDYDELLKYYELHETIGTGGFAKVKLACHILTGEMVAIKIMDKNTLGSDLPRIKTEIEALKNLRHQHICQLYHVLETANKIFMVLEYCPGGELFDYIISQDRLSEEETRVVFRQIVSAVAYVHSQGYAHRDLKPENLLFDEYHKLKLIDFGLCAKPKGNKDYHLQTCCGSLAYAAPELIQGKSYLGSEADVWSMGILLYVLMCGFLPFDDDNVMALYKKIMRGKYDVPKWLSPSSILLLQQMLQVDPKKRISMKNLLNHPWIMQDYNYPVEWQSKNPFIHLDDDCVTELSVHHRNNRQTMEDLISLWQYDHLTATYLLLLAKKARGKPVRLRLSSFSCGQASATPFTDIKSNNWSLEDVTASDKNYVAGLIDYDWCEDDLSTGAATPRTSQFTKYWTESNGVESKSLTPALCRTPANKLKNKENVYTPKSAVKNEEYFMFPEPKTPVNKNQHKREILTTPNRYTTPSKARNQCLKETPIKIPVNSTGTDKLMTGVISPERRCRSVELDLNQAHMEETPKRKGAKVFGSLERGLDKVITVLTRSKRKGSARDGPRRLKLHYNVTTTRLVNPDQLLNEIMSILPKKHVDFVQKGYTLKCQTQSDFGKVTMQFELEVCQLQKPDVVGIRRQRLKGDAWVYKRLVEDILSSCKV

A word on the IC50: it is the concentration at which inhibition is half-maximal. As to `CC(=O)c1cnc2ccc(-c3cc(Cl)c(O)c(Cl)c3)nc2c1N[C@H]1CC[C@H](CN(C)C)CC1` [Example 6, 1-{6-(3,5-Dichloro-4-hydroxyphenyl)-4-({trans-4-[(dimethylamino)methyl]cyclohexyl}amino)-1,5-naphthyridin-3-yl}ethanone dihydrochloride], the IC50 with HT1197 cells (setting [1]) is 0.12 µM; in the assay with HT1197 cells (Homo sapiens, HT1197, read-out: IC50, in vitro anti-proliferative assay), 0.097 µM; in the assay with A549 cells (setting [2]), 0.0089 µM; in the assay on A549 cells (Homo sapiens, A549, read-out: IC50, in vitro anti-proliferative assay) it was 0.0067 µM; with 22Rv1 cells (setting [3]) it was 0.0052 µM; with 22Rv1 cells (Homo sapiens, 22Rv1, read-out: IC50, in vitro anti-proliferative assay), 0.006 µM. Also, the IC50 with DU4475 cells (setting [4]) worked out at 0.0033 µM; in the assay on DU4475 cells (Homo sapiens, DU-4475, read-out: IC50, in vitro anti-proliferative assay) it was 0.0023 µM; in the assay on T47D cells (setting [5]) it was 0.0053 µM; in the assay on T47D cells (Homo sapiens, T47D, read-out: IC50, in vitro anti-proliferative assay) it was 0.0043 µM. Also, the “Tumor growth inhibition (TGI)” value with DU145 xenografts was 106%; with MDA-MB-231 xenografts it was 73% and 72%; in the assay on MIAPaCa-2 xenografts it was 87%. In addition, the “Tumor growth suppressive effect” value in the assay with PC-14 xenografts is “no tumor growth suppressive effect”.
Consider `CC(=O)c1cnc2ccc(-c3cc(Cl)c(O)c(Cl)c3)nc2c1N[C@H]1CC[C@H](CN2CC[C@@H](F)C2)CC1` [Example 209, 1-[6-(3,5-dichloro-4-hydroxyphenyl)-4-({4-[((R)-3-fluoropyrrolidin-1yl)methyl]cyclohexyl}amino)-1,5-naphthyridin-3-yl]ethanone dihydrochloride], for which the IC50 is 0.12 µM with HT1197 cells (setting [1]); 0.002 µM against MELK; 0.037 µM in the assay on A549 cells (setting [2]); 0.032 µM in the assay on 22Rv1 cells (setting [3]); 0.01 µM in the assay with DU4475 cells (setting [4]); 0.036 µM in the assay on T47D cells (setting [5]).
Take `CC(=O)c1cnc2ccc(-c3cc(Cl)c(O)c(Cl)c3)nc2c1Nc1ccc(N2CCCC(N)C2)nc1` (centres unmarked) [Example 64, 1-(4-{[6-(3-Aminopiperidin-1-yl)pyridin-3-yl]amino}-6-(3,5-dichloro-4-hydroxyphenyl)-1,5-naphthyridin-3-yl)ethanone trihydrochloride]: the IC50 in the assay on HT1197 cells (setting [1]) came to 2.9 µM; against MELK it was 0.0012 µM; in the assay with A549 cells (setting [2]) it was 0.07 µM; with 22Rv1 cells (setting [3]), 0.016 µM; with DU4475 cells (setting [4]), 0.016 µM; in the assay on T47D cells (setting [5]), 0.0064 µM.
As to `CC(=O)c1cnc2ccc(N3CCC(O)C3)nc2c1N[C@H]1CC[C@H](CN2CCC(O)C2)CC1` (stereo partly drawn) [Example 77, 1-(6-(3-Hydroxypyrrolidin-1-yl)-4-{trans-4-[(3-hydroxypyrrolidin-1-yl)methyl]-cyclohexylamino}-1,5-naphthyridin-3-yl)ethanone], the IC50 in the assay with HT1197 cells (setting [1]) turned out to be 10 µM; against MELK, 0.74 µM; with A549 cells (setting [2]) it was 10 µM; in the assay on 22Rv1 cells (setting [3]) it was 10 µM; with DU4475 cells (setting [4]), 10 µM; with T47D cells (setting [5]), 10 µM.
In the case of `CC(=O)c1cnc2ccc(-c3cc(F)c(O)c(Cl)c3)nc2c1N[C@H]1CC[C@H](NC(=O)C(C)N)CC1` (stereo partly drawn) [Example 74, N-{4-[3-Acetyl-6-(3-chloro-5-fluoro-4-hydroxyphenyl)-1,5-naphthyridin-trans-4-ylamino]-cyclohexyl}-2-aminopropanamide dihydrochloride], the IC50 came to 100 µM in the assay with HT1197 cells (setting [1]); 0.0026 µM against MELK; 0.13 µM in the assay with A549 cells (setting [2]); 0.025 µM with 22Rv1 cells (setting [3]); 0.0036 µM in the assay with DU4475 cells (setting [4]); 0.0043 µM with T47D cells (setting [5]).
On to `CN(C)C[C@H]1CC[C@H](Nc2c(C(=O)C3CCC3)cnc3ccc(-c4cc(Cl)c(O)c(Cl)c4)nc23)CC1` [Example 211, (6-(3,5-dichloro-4-hydroxyphenyl)-4-((4-[(dimethylamino)methyl{cyclohexyl)amino)-1,5-naphthyridin-3-yl) (cyclobutyl)methanone dihydrochloride], for which the IC50 was determined as 0.0077 µM with HT1197 cells (setting [1]); 0.0027 µM at MELK; 0.0076 µM in the assay on A549 cells (setting [2]); 0.0072 µM in the assay on 22Rv1 cells (setting [3]); 0.003 µM in the assay with DU4475 cells (setting [4]); 0.0034 µM in the assay with T47D cells (setting [5]).
Regarding `CC(=O)c1cnc2ccc(-c3ccc(O)nc3)nc2c1N[C@H]1CC[C@H](CN(C)C)CC1` [Example 86, 1-(4-{trans-4-[(Dimethylamino)methyl]cyclohexylamino}-6-(6-hydroxypyridin-3-yl)-1,5-naphthyridin-3-yl)ethanone dihydrochloride], the IC50 with HT1197 cells (setting [1]) is 10 µM; on MELK, 0.011 µM; in the assay on A549 cells (setting [2]) it was 8 µM; in the assay on 22Rv1 cells (setting [3]), 5.3 µM; in the assay with DU4475 cells (setting [4]), 6.5 µM; in the assay on T47D cells (setting [5]), 6.2 µM.
Take “(S)-(4-{[6-(3-aminopiperidin-1- yl)pyridin-3-yl]amino}-6-(3-chloro-5- fluoro-4-hydroxyphenyl)-1,5- naphthyridin-3- yl)(cyclobutyl)methanone [Example 213]”: the IC50 in the assay on HT1197 cells (HT1197 cells (MELK-negative control), 72 hours, read-out: IC50 (μM) (HTll97)) was 1.7 µM; on MELK, 0.0011 µM; in the assay on A549 cells (A549 cells, 72 hours, read-out: IC50 (μM) (A549)), 0.029 µM; in the assay on 22Rv1 cells (22Rv1 cells, 72 hours, read-out: IC50 (μM) (22Rvl)) it was 0.0071 µM; in the assay on DU4475 cells (DU4475 cells, 72 hours, read-out: IC50 (μM) (DU4475)), 0.003 µM; with T47D cells (T47D cells, 72 hours, read-out: IC50 (μM) (T47D)), 0.0043 µM.
